Experimental data reported in US12161642B2, “Ferrochelatase inhibitors and methods of use” (INDIANA UNIVERSITY RESEARCH AND TECHNOLOGY CORPORATION, priority 2018, dated 2024).
pIC50: −log10 of the molar value.

What was measured:
recombinant human FECH = recombinant human FECH (Homo sapiens (Human), UniProt P22830); assay: FECH enzymatic activity assay (Ni2+ mesoporphyrin IX formation, absorbance at 550 nm); type: biochemical; settings: recombinant FECH; read-out: FECH IC50
Description: The human FECH expression plasmid pHDTF20 was obtained in E. coli cells from the Dailey Lab (University of Georgia). The cells were grown in Circlegrow medium (MP Biomedicals, LLC #3000-122) with ampicillin for 20 hours. Cells were harvested, lysed in a Tris-MOPS buffer and purified by immobilized metal affinity chromatography using HisPur Cobalt resin (Thermo Fisher #89965).
The activity assay buffer was 100 mM Tris-HCl pH 8.0 with 0.05% octyl glucoside detergent. Assay reagents included 100 μM NiCl (Sigma #339350), 0.75 μM FECH enzyme and 100 μM mesoporphyrin (Sigma #258806) prepared in ammonium hydroxide (Santa Cruz #sc-214535).
The kinetic assay was optimized for a 384-well format. For the 384-well assay, each well contained a 50 μL reaction with 40 μL buffer, 5 μL mesoporphyrin solution, 5 μL NiCl and FECH solution. […] This time point was used for the chemical screen.
A mixture of assay buffer, NiCl and FECH enzyme (15 μL) was added to all wells on the assay plate using a MulitFlo dispenser. To start the reaction, 15 μL of a 333 μM mesoporphyrin solution in assay buffer was added to the plate, the plate spun down and the absorbance at OD=550 nm immediately read to establish a read at time 0. Plates were read for absorbance at OD=550 nm again at t=20 minutes and the activity was expressed as the change in the absorbance over the 20 minute reaction.
Compounds, reordered from ChemDiv or synthesized as described above, were made to 10 mM in DMSO and tested in the FECH enzymatic assay at final concentrations of […] 100 μM (1% final DMSO concentration). IC50 values for the compounds were determined using GraphPad Prism software.
A kinetic assay to monitor FECH enzymatic activity was adapted from a published protocol (Burden et a., Biochim Biophys Acta 1435, 191-197 (1999)).

HRECs = assay: HREC proliferation assay (alamarBlue), GI50 determination; type: cell-based, human; settings: proliferation of HRECs
Description: Human retinal microvascular endothelial cells (HRECs) were cultured in EGM-2 medium (Lonza). Cells (2500/well) in EGM-2 medium were plated in 48 wells in the center of a 96-well black with clear bottom TC treated plate are allowed to attach overnight. The cells were treated with compounds such that final assay concentrations were 100 μM, 30 μM, 10 μM, 3 μM, 1 μM, 100 nM, and 10 nM with DMSO control (1% final DMSO concentration). Cells were allowed to proliferate for 44 hours prior to addition of alamarBlue. The alamarBlue reagent is a flurorometric/colorimetric redox reagent that is reduced in the presence of growing cells. The assay was completed with a read of fluorescence at excitation of 560 nm and emission of 590 nm. GI50 values were determined using GraphPad Prism software.

Chain of recombinant human FECH (P22830 55-423): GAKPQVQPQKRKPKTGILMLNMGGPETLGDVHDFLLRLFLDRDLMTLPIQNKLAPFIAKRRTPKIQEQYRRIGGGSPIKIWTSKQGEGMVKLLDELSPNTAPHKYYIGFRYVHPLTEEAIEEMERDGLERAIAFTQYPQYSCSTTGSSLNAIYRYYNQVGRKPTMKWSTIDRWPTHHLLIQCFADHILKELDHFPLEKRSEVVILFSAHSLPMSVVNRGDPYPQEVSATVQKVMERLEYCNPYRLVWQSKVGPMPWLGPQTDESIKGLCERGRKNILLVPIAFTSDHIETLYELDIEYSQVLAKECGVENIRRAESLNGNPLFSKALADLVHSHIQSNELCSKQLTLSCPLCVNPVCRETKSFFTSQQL

| pIC50 (recombinant human FECH) | Compound | GI50 (HRECs; Homo sapiens, HREC, 44 h) | GI50 (HRECs; 44 hours) |
| --- | --- | --- | --- |
| 6.29 | CCCc1cc(=O)n2nc(CNc3cccc(C)c3)nc2[nH]1 [Example 5b, 5-propyl-2-((m-tolylamino)methyl)-[1,2,4]triazolo[1,5-a]pyrimidin-7(4H)-one] | > 100 µM |  |
| 6.46 | CCCc1cc(=O)n2nc(CNc3cccc(Cl)c3)nc2[nH]1 [Example 5e, 2-(((3-chlorophenyl)amino)methyl)-5-propyl-[1,2,4]triazolo[1,5-a]pyrimidin-7(4H)-one] | > 100 µM |  |
| 7.04 | CCCc1cc(=O)n2nc(CNc3ccc(Cl)cc3)nc2[nH]1 [Example 5f, 2-(((4-chlorophenyl)amino)methyl)-5-propyl-[1,2,4]triazolo[1,5-a]pyrimidin-7(4H)-one] |  | > 100 µM |
| 4.56 | CCCc1cc(=O)n2nc(CNc3ccccc3-c3ccccc3)nc2[nH]1 [Example 5g, 2-(([1,1′-biphenyl]-2-ylamino)methyl)-5-propyl-[1,2,4]triazolo[1,5-a]pyrimidin-7(4H)-one] | > 100 µM |  |
| 7.47 | CCCc1cc(=O)n2nc(CNc3ccc(F)c(Cl)c3)nc2[nH]1 [Example 5i, 2-(((3-chloro-4-fluorophenyl)amino)methyl)-5-propyl-[1,2,4]triazolo[1,5-a]pyrimidin-7(4H)-one] | > 100 µM |  |
| 4.97 | CCCc1cc(=O)n2nc(CNc3ccc(CC)cc3)nc2[nH]1 [Example 5j, 2-(((4-ethylphenyl)amino)methyl)-5-propyl-[1,2,4]triazolo[1,5-a]pyrimidin-7(4H)-one] | > 100 µM |  |
| 7.37 | CCCc1cc(=O)n2nc(CNc3ccc(F)c(F)c3)nc2[nH]1 [Example 5k, 2-(((3,4-difluorophenyl)amino)methyl)-5-propyl-[1,2,4]triazolo[1,5-a]pyrimidin-7(4H)-one] | > 100 µM |  |
| 4.11 | CCCCCOc1ccc(NCc2nc3[nH]c(CCC)cc(=O)n3n2)cc1 [Example 5l, 2-(((4-(pentyloxy)phenyl)amino)methyl)-5-propyl-[1,2,4]triazolo[1,5-a]pyrimidin-7(4H)-one] | > 100 µM |  |
| 6.28 | CCCc1cc(=O)n2nc(CNc3ccc(F)cc3)nc2[nH]1 [Example 5m, 2-(((4-fluorophenyl)amino)methyl)-5-propyl-[1,2,4]triazolo[1,5-a]pyrimidin-7(4H)-one] | > 100 µM |  |
| 4.47 | CCCc1cc(=O)n2nc(CNc3ccc(OC(F)(F)F)cc3)nc2[nH]1 [Example 5n, 5-propyl-2-(((4-(trifluoromethoxy)phenyl)amino)methyl)-[1,2,4]triazolo[1,5-a]pyrimidin-7(4H)-one] | > 100 µM |  |
| < 4.00 | Cc1ccccc1NCc1nc2[nH]c3c(c(=O)n2n1)CCC3 [Example 5o, 2-((o-tolylamino)methyl)-4,5,6,7-tetrahydro-8H-cyclopenta[d][1,2,4]triazolo[1,5-a]pyrimidin-8-one] | > 100 µM |  |
| 5.03 | Cc1cccc(NCc2nc3[nH]c4c(c(=O)n3n2)CCC4)c1 [Example 5p, 2-((m-tolylamino)methyl)-4,5,6,7-tetrahydro-8H-cyclopenta[d][1,2,4]triazolo[1,5-a]pyrimidin-8-one] | > 100 µM |  |
| 5.44 | Cc1ccc(NCc2nc3[nH]c4c(c(=O)n3n2)CCC4)cc1 [Example 5q, 2-((p-tolylamino)methyl)-4,5,6,7-tetrahydro-8H-cyclopenta[d][1,2,4]triazolo[,5-a]pyrimidin-8-one] | > 100 µM |  |
| 4.75 | Cc1ccccc1NCc1nc2[nH]c(C(C)C)cc(=O)n2n1 [Example 5r, 5-isopropyl-2-((o-tolylamino)methyl)-[1,2,4]triazolo[1,5-a]pyrimidin-7(4H)-one] | > 100 µM |  |
| 4.55 | Cc1cccc(NCc2nc3[nH]c(C(C)C)cc(=O)n3n2)c1 [Example 5s, 5-isopropyl-2-((m-tolylamino)methyl)-[1,2,4]triazolo[1,5-a]pyrimidin-7(4H)-one] | > 100 µM |  |
| 4.77 | Cc1ccc(NCc2nc3[nH]c(C(C)C)cc(=O)n3n2)cc1 [Example 5t, 5-isopropyl-2-((p-tolylamino)methyl)-[1,2,4]triazolo[1,5-a]pyrimidin-7(4H)-one] | > 100 µM |  |
| 4.11 | Cc1cc(=O)n2nc(CNc3ccccc3C)nc2[nH]1 [Example 5u, 5-methyl-2-((o-tolylamino)methyl)-[1,2,4]triazolo[1,5-a]pyrimidin-7(4H)-one] | > 100 µM |  |
| 4.73 | Cc1cccc(NCc2nc3[nH]c(C)cc(=O)n3n2)c1 [Example 5v, 5-methyl-2-((m-tolylamino)methyl)-[1,2,4]triazolo[1,5-a]pyrimidin-7(4H)-one] | > 100 µM |  |

The next lines start with the molecule.

| Compound | pIC50 (recombinant human FECH) | GI50 (HRECs; Homo sapiens, HREC, 44 h) | GI50 (HRECs; 44 hours) |
| --- | --- | --- | --- |
| CC(C)(C)c1ccc(-c2n[nH]c(N)n2)cc1 [Example 1, 3-(4-(tert-butyl)phenyl)-1H-1,2,4-triazol-5-amine] | < 4.00 | > 100 µM |  |
| Cc1cc(=O)n2nc(-c3ccc(C(C)(C)C)cc3)nc2[nH]1 [Example 2, 2-(4-(tert-butyl)phenyl)-5-methyl-[1,2,4]triazolo[1,5-a]pyrimidin-7(4H)-one] | < 4.00 | > 100 µM |  |
| CC(C)(C)c1ccc(-c2nc3[nH]c(CCl)cc(=O)n3n2)cc1 [Example 3, 2-(4-(tert-butyl)phenyl)-5-(chloromethyl)-[1,2,4]triazolo[1,5-a]pyrimidin-7(4H)-one] | < 4.00 | > 100 µM |  |
| CN(Cc1ccccc1)Cc1cc(=O)n2nc(-c3ccc(C(C)(C)C)cc3)nc2[nH]1 [Example 4a, 5-((benzyl(methyl)amino)methyl)-2-(4-(tert-butyl)phenyl)-[1,2,4]triazolo[1,5-a]pyrimidin-7(4H)-one] | < 4.00 | > 100 µM |  |
| CC(C)(C)c1ccc(-c2nc3[nH]c(CNc4ccnn4-c4ccccc4)cc(=O)n3n2)cc1 [Example 4b, 2-(4-(tert-butyl)phenyl)-5-(((1-phenyl-1H-pyrazol-5-yl)amino)methyl)-[1,2,4]triazolo[1,5-a]pyrimidin-7(4H)-one] | < 4.00 | > 100 µM |  |
| CC(C)(C)c1ccc(-c2nc3[nH]c(CNCCc4ccccc4)cc(=O)n3n2)cc1 [Example 4c, 2-(4-(tert-butyl)phenyl)-5-((phenethylamino)methyl)-[1,2,4]triazolo[1,5-a]pyrimidin-7(4H)-one] | < 4.00 | > 100 µM |  |
| CC(C)(C)c1ccc(-c2nc3[nH]c(CNc4cnccn4)cc(=O)n3n2)cc1 [Example 4d, 2-(4-(tert-butyl)phenyl)-5-((pyrazin-2-ylamino)methyl)-[1,2,4]triazolo[1,5-a]pyrimidin-7(4H)-one] | < 4.00 | > 100 µM |  |
| CC(C)(C)c1ccc(-c2nc3[nH]c(CNC4CCCC4)cc(=O)n3n2)cc1 [Example 4f, 2-(4-(tert-butyl)phenyl)-5-((cyclopentylamino)methyl)-[1,2,4]triazolo[1,5-a]pyrimidin-7(4H)-one] | < 4.00 | > 100 µM |  |
| CCN(CC)Cc1cc(=O)n2nc(-c3ccc(C(C)(C)C)cc3)nc2[nH]1 [Example 4g, 2-(4-(tert-butyl)phenyl)-5-((diethylamino)methyl)-[1,2,4]triazolo[1,5-a]pyrimidin-7(4H)-one] | < 4.00 | > 100 µM |  |
| COc1cccc(NCc2cc(=O)n3nc(-c4ccc(C(C)(C)C)cc4)nc3[nH]2)c1 [Example D351-0319] |  | > 100 µM |  |
| Cc1c(Cl)cccc1NCc1nc2[nH]c(C(C)C)cc(=O)n2n1 [Example D433-1800] | 6.12 |  |  |
